SMILES strings stand for the structures. ≈ marks a conversion by molar mass, not a printed value.

The conditions of the series: buffer; pH 7.4; 200.0 µM.
`N#Cc1ccc(Cn2c(=O)oc3ccccc32)cc1` yielded a solubility (kinetic) of 6 µg/mL (≈ 24 µM).
Next, `Cc1ccc(NC(=O)CN(C)C(=O)COc2ccccc2-c2ccccc2)cc1`: 11.1 µg/mL (≈ 28.6 µM); `C=CCSc1nc2sc3c(c2c(=O)n1CC)CCC3`: 0.8 µg/mL (≈ 2.74 µM); `CCOC(=O)c1sc(N)c(C#N)c1COC(=O)C1=COCCO1`: 11.6 µg/mL (≈ 34.3 µM).
`C[C@H](NC(N)=O)C(=O)OCC(=O)NCc1cccs1`: the kinetic solubility was over 42.8 µg/mL.
Molecule `C/C(=C\c1ccccc1)CN1CCN(C(C)C)C(CCO)C1` (configuration not stated) returned a solubility (kinetic) of over 45.4 µg/mL.
As for `CC(C)(C)c1csc(Sc2ncccc2[N+](=O)[O-])n1`, the solubility (kinetic) amounted to 1.7 µg/mL (≈ 5.76 µM).
Then `O=C(c1cccnc1Cl)N(Cc1ccccc1)Cc1ccccc1`, with 39.5 µg/mL (≈ 117 µM).
Molecule `O=S(=O)(c1ccccc1)N(CC1CO1)c1cc(Cl)ccc1Cl` (configuration not stated) came in with a solubility (kinetic) of 36.4 µg/mL (≈ 102 µM).
On to `COc1cc(CC(=O)Nc2cccc(S(=O)(=O)N(C)c3ccccc3)c2)cc(OC)c1OC`, for which the solubility (kinetic) was determined as 14.1 µg/mL (≈ 30 µM).
Molecule `COCCCNS(=O)(=O)c1ccc2[nH]c(=O)[nH]c2c1` displayed a kinetic solubility of over 42.8 µg/mL.
Next, `O=C(Nc1cc(C(=O)N2CCN(c3ccccc3)CC2)ccc1Cl)c1cccs1`: 4.8 µg/mL (≈ 11.3 µM); `NCCNC(=O)c1c(NC(=O)c2ccccc2)sc2c1CCCC2`: 41.1 µg/mL (≈ 120 µM); `O=C(Nc1cccc(Cl)c1)NC1CC2CCC1C2` (configuration not stated): 1.1 µg/mL (≈ 4.15 µM).
For `O=C(CN1c2cccc3cccc(c23)S1(=O)=O)Nc1ccccc1`, the kinetic solubility was determined as 0.4 µg/mL (≈ 1.18 µM).
In turn, `O=C(CSc1nc2ccccc2c(=O)[nH]1)Nc1ccccc1O` displayed a kinetic solubility of 3.8 µg/mL (≈ 11.6 µM).
Take `CCc1ccc(-c2nc(CS(=O)CC(=O)O)c(C)o2)cc1` (configuration not stated): the solubility (kinetic) was determined as 46 µg/mL (≈ 150 µM).
`O=C(O)C(Cc1ccc(O)cc1)N1C(=O)c2ccccc2C1=O` (configuration not stated) showed a solubility (kinetic) of over 46.7 µg/mL.
`CC1CCN(C(=O)COC(=O)c2ccccc2C(=O)c2ccccc2)CC1`: the kinetic solubility is over 54.8 µg/mL.
Molecule `Cc1ccccc1CN(C)C(=O)CNC(=O)c1ccc2ccccc2c1` registered a kinetic solubility of 31.1 µg/mL (≈ 89.8 µM).
`CCC1CO/C(=C(\C(=C(Cl)Cl)N2CCOCC2)[N+](=O)[O-])N1` (configuration not stated) had a kinetic solubility of over 50.7 µg/mL.
Then `O=C(N/C(=C\c1ccco1)C(=O)N1CCCC(CO)C1)c1ccccc1` (configuration not stated), with over 53.2 µg/mL.
In turn, `O=C(Nc1ccc(F)cc1)c1cncs1` returned a kinetic solubility of over 33.3 µg/mL.
With `N#Cc1ccccc1COc1cccc2c1CCCC2O` (configuration not stated), the solubility (kinetic) stood at 2.1 µg/mL (≈ 7.52 µM).
Consider `CCC1CCCCN1C(=O)CCS(=O)(=O)c1ccccc1` (configuration not stated), for which the solubility (kinetic) is over 46.4 µg/mL.
The molecule `CC(C)CN(C(=O)CN(C)CC(=O)Nc1ccccc1C#N)c1c(N)n(CC(C)C)c(=O)[nH]c1=O` showed a kinetic solubility of over 72.5 µg/mL.
Turning to `CC(NC1c2ccccc2-c2ccccc21)c1ccccc1` (configuration not stated), the solubility (kinetic) is under 0.6 µg/mL.
In the case of `CC(=O)Nc1cccc(NC(=O)CCCC2CCCCC2)c1`, the solubility (kinetic) came out at 3 µg/mL (≈ 9.92 µM).
As to `Cc1cc(C)cc(OCc2ccc(C(=O)NC3CCOC3=O)o2)c1` (configuration not stated), the solubility (kinetic) is over 49.4 µg/mL.
In turn, `CCOc1ccc(NC(=S)NCc2ccc3[nH]c(C)cc3c2)cc1` gave a solubility (kinetic) of 11.4 µg/mL (≈ 33.6 µM).
Next, `Cc1ccccc1OCC(O)CN1C(=O)c2ccccc2C1=O` (configuration not stated): 41.7 µg/mL (≈ 134 µM); `Cc1cc(C)cc(NC(=S)NC(=O)C2CC2)c1`: 30 µg/mL (≈ 121 µM); `O=C(O)COCC(=O)N1CCN(C(c2ccccc2)c2ccccc2)CC1`: over 55.3 µg/mL.
Next, `COCCn1c(C)cc(C(=O)CN2c3cccc4cccc(c34)S2(=O)=O)c1C`: 3.5 µg/mL (≈ 8.78 µM); `COc1ccc(NC(=O)CN2C(=O)NC3(CCCCC3C)C2=O)cc1S(=O)(=O)N1CCOCC1` (configuration not stated): over 74.2 µg/mL; `O=C(Nc1ncc([N+](=O)[O-])s1)c1cccs1`: 37.2 µg/mL (≈ 146 µM).
Next, `C(=C\c1nc(-c2cccnc2)no1)/c1ccccc1`: 3.4 µg/mL (≈ 13.6 µM).
With `CCCCNC(=O)c1cc(S(=O)(=O)N2CCCCC2)oc1C`, the solubility (kinetic) was 24 µg/mL (≈ 73.1 µM).
`CC(=O)c1ccc2c(c1)c(C#N)c1ccccc1[n+]2[O-]` showed a kinetic solubility of 1.7 µg/mL (≈ 6.48 µM).
On to `Cc1ccc(C(=O)Nc2ccccc2C(=O)Nc2ccccn2)cc1Cl`, for which the solubility (kinetic) was under 0.3 µg/mL.
Next, `O=C1CN(S(=O)(=O)c2cccc(C(=O)O)c2)c2ccccc2N1`: over 49.8 µg/mL; `CCOC(=O)c1sc(N)c(C(=O)OCC)c1C`: 4.4 µg/mL (≈ 17.1 µM).
Next, `CC(=O)c1cccc(NC(=O)c2sc(Cl)nc2C)c1`: over 44.2 µg/mL.
Turning to `Cn1c(=O)[nH]c(=O)c2c1nc(NCCN)n2CCOc1ccccc1`, the solubility (kinetic) stood at 49.1 µg/mL (≈ 143 µM).
`COC(=O)c1ccc(NC(=O)c2cccc(NC(=O)c3ccco3)c2)cc1` yielded a solubility (kinetic) of under 0.4 µg/mL.
Turning to `CC(C)CCc1noc(CN(C)CCC2CCOCC2)n1`, the kinetic solubility is over 44.3 µg/mL.
Molecule `COc1ccc(NC(=O)c2cc(-c3ccco3)on2)cc1OC` had a kinetic solubility of 1.6 µg/mL (≈ 5.09 µM).
In the case of `Cc1[nH]c2ccc(Cl)cc2c(=O)c1CN1CCCC1`, the solubility (kinetic) was determined as 38.7 µg/mL (≈ 140 µM).
The molecule `O=C(COC(=O)C1CCC(=O)N1)Nc1cccc([N+](=O)[O-])c1` (configuration not stated) had a solubility (kinetic) of over 46.1 µg/mL.
The molecule `CCN1CC(CN(C)Cc2nc(-c3ccco3)oc2C)CC1=O` (configuration not stated) displayed a kinetic solubility of over 47.6 µg/mL.
Next, `CCC(CO)NCc1ccccc1OC(C)C.Cl` (configuration not stated): over 41.1 µg/mL.
Then `N#CCNC(=O)C1CC(=O)N(CCc2ccc(F)cc2)C1` (configuration not stated), with 39.7 µg/mL (≈ 137 µM); and `O=S1(=O)CCC(NC(=S)Nc2ccccc2)C1` (configuration not stated), with over 40.6 µg/mL.
For the molecule `CN(C)CCSc1nc2cc(S(=O)(=O)N3CCCCC3)ccc2o1`, the solubility (kinetic) worked out at 41.7 µg/mL (≈ 113 µM).
In turn, `CNc1nc(-c2ccccc2)cc(-c2ccccc2)n1` gave a kinetic solubility of 1.4 µg/mL (≈ 5.36 µM).
Then `CCCOC(=O)Nc1ccc(S(=O)(=O)Nc2ncccn2)cc1`, with over 50.5 µg/mL; and `COc1ccc(N(C)C(=O)c2sc(Cl)nc2C)cc1`, with 42.7 µg/mL (≈ 144 µM).
Regarding `CCc1ccc(NC2=NCCCS2)cc1`, the solubility (kinetic) is over 33 µg/mL.
Then `O=C(NCC(O)CO)c1csc(Nc2cccc3ccccc23)n1` (configuration not stated), with 38.5 µg/mL (≈ 112 µM); and `Nc1[nH]c(=O)nc(Nc2ccccc2)c1N=O`, with over 34.7 µg/mL.
Regarding `O=C(c1cc(Br)c[nH]1)N1CCCCC1`, the kinetic solubility is over 38.6 µg/mL.
For `CC(CN1CCCCC1)NC(=O)c1cccs1` (configuration not stated), the kinetic solubility was over 37.9 µg/mL.
Then `COc1cc(/C=C(\C#N)C(N)=O)ccc1OCc1c(C)no[n+]1[O-]`, with 14.6 µg/mL (≈ 44.2 µM); and `COc1ccc(OCCOCCN2CCN(C)CC2)cc1.O=C(O)C(=O)O`, with 54.2 µg/mL.
With `C=CCNC(=S)N1CCC(C(=O)c2ccc(C)cc2)CC1`, the kinetic solubility was over 45.4 µg/mL.
Next, `Cc1cccc(/N=C/c2ccccn2)n1`: 27.5 µg/mL (≈ 139 µM).
`O=C(CN1C(=O)NC2(CCCCC2)C1=O)NCCc1ccc(Cl)cc1Cl` had a kinetic solubility of over 59.7 µg/mL.
`COc1cccc(C(=O)NC(C)c2cccc3ccccc23)c1OC` (configuration not stated): the kinetic solubility was determined as 19 µg/mL (≈ 56.6 µM).
`O=C(NCc1cccnc1)/C(=C/c1ccc([N+](=O)[O-])cc1)NC(=O)c1ccccc1` yielded a kinetic solubility of 10.2 µg/mL (≈ 25.3 µM).
Then `COc1cc(S(=O)(=O)N2CCOCC2)ccc1NC(=O)COC(=O)c1cc(OC)c(OC)c(OC)c1`, with 4.5 µg/mL (≈ 8.58 µM); and `O=C(O)CC1(CC(=O)Nc2cc3ccccc3cn2)CCCCC1`, with 40.7 µg/mL (≈ 125 µM); and `CC(C)c1nc(Cl)c(C#N)c2c1CCC2`, with 4.3 µg/mL (≈ 19.5 µM).
For the molecule `O=C1CC(N2CCSCC2)C(=O)N1c1ccc(F)cc1` (configuration not stated), the kinetic solubility is over 44.2 µg/mL.
`C/C=C/c1ccc(OCc2cc(=O)n3cc(C)ccc3n2)c(OC)c1` displayed a solubility (kinetic) of 9.1 µg/mL (≈ 27.1 µM).
As to `COc1cccc(C(=O)OCC(=O)NCCCc2ccccc2)c1`, the solubility (kinetic) came to 12.1 µg/mL (≈ 37 µM).
Next, `COc1ccc(CNC(=O)c2cc3cccc(O)c3oc2=N)cc1`: 7.2 µg/mL (≈ 22.2 µM); `Cn1cc(S(=O)(=O)N2CCCC(C(=O)O)C2)cn1` (configuration not stated): over 41 µg/mL; `CC(NC(=O)CN1C(=O)NC2(CCCCCCC2)C1=O)c1ccccc1` (configuration not stated): over 53.6 µg/mL.
Then `Cc1ccc(OCc2csc(N)n2)cc1`, with over 33 µg/mL.
`CC(C)(C)n1cnc2cc(NC(=O)c3ccccc3)ccc21` came in with a solubility (kinetic) of over 44 µg/mL.
Then `COc1ccc(Nc2ncnc3ccc(C)cc23)cc1`, with over 39.8 µg/mL.
`O=C(COC(=O)c1cccc(Cl)c1)NC(=O)NCc1ccccc1` returned a solubility (kinetic) of 3.6 µg/mL (≈ 10.4 µM).
As for `CCOc1ccc(-c2c(C)sc3nc[nH]c(=O)c23)cc1`, the kinetic solubility worked out at 24.6 µg/mL (≈ 85.9 µM). This solubility kinetic is about 6.8-fold higher than that of the molecule before.
Turning to `COC(=O)c1scc(S(=O)(=O)C(C)(C)C)c1-n1cccc1`, the solubility (kinetic) was determined as 35.6 µg/mL (≈ 109 µM).
For `O=S(=O)(Nc1cccc2ccccc12)c1ccccc1`, the solubility (kinetic) amounted to 8.6 µg/mL (≈ 30.4 µM). This solubility kinetic is about 4.1-fold lower than that of the molecule before.
On to `NC(=O)NC(=O)CN1c2cccc3cccc(c23)S1(=O)=O`, for which the solubility (kinetic) came to 3.7 µg/mL (≈ 12.1 µM). Against the preceding molecule, the solubility kinetic is about 2.3-fold lower.
Molecule `Cc1cccnc1NC(=O)C(c1ccccc1)c1ccccc1` showed a kinetic solubility of over 45.4 µg/mL.
Take `Cn1cc(/C=C2\C(=O)NC(=O)N(c3ccccc3)C2=O)c2ccccc21`: the solubility (kinetic) turned out to be 1.6 µg/mL (≈ 4.63 µM).
On to `Cc1ccc(OCCNC(=O)C(C)SCC(=O)Nc2ccc(F)cc2)cc1` (configuration not stated), for which the solubility (kinetic) amounted to 35 µg/mL (≈ 89.6 µM).
Next, `O=C(O)CC1(CC(=O)Nc2ccccc2Br)CCCC1`: over 51 µg/mL; `Cc1ccc(S(=O)(=O)CCN2CCN(c3ccccn3)CC2)cc1`: over 51.8 µg/mL.
For the molecule `CC(C)(C)C(=O)N1CCN(c2ncccc2C(F)(F)F)CC1`, the kinetic solubility was over 47.3 µg/mL.
In turn, `COc1ccc(OC)c(/C=C2\SC(N3CCCC(C)C3)=NC2=O)c1` (configuration not stated) registered a kinetic solubility of 22.1 µg/mL (≈ 63.8 µM).
Take `O=C(NCC(O)c1ccc([N+](=O)[O-])cc1)C1=COCCO1` (configuration not stated): the kinetic solubility is over 44.1 µg/mL.
Next, `Cc1onc(-c2ccccc2)c1C(=O)OCCOc1cccc(Cl)c1`: under 0.8 µg/mL.
Then `O=C(COc1ccccc1)N1CCN(C(=O)c2ccccc2F)CC1`, with over 51.4 µg/mL; and `Cc1cccc(-n2c(-c3ccc(Br)o3)n[nH]c2=S)c1`, with over 50.4 µg/mL.
For `Cc1ccc2nc(C)c3c(c2c1)N(c1ccc(F)cc1)CC3`, the solubility (kinetic) is 40.6 µg/mL (≈ 139 µM).
Molecule `CN(Cc1ccccc1)c1c([N+](=O)[O-])c(=O)n(C)c2ccccc12` gave a kinetic solubility of 2.7 µg/mL (≈ 8.35 µM).
The molecule `O=C(Nc1cccnc1Cl)c1cccc(F)c1` displayed a solubility (kinetic) of 36.1 µg/mL (≈ 144 µM).
`COc1ccc(C(=O)Nc2cc(C)on2)c(OC)c1` registered a solubility (kinetic) of 21.4 µg/mL (≈ 81.6 µM).
In the case of `Cc1noc(C)c1S(=O)(=O)NCc1cccc(Cl)c1`, the kinetic solubility is over 45.1 µg/mL.

The values are drawn from PubChem BioAssay AID1996.
